ChEMBL document CHEMBL6178018, “Design of an Oral STING Agonist through Intramolecular Hydrogen Bond Ring Mimicking to Achieve Complete Tumor Regression” (J Med Chem, 2025)
The source made the active and inactive calls. The calls are words filed in the database; no cut-off is given here.

Experiments:
[1] = Cmax in mouse at 10 mg/kg, po by LC-MS/MS analysis; assay type: ADME, organism-based; conditions: in vivo
[2] = biological target: T1, Interferon regulatory factor 3 (Homo sapiens) (UniProt Q14653); test: Induction of IRF3 phosphorylation in human THP1-Blue ISG cells at 13 to 50 uM measured after 3 hrs by Western blot analysis; assay type: cell-based; conditions: filed as agonist, dose 13-50 µM
T1 sequence (whole entry): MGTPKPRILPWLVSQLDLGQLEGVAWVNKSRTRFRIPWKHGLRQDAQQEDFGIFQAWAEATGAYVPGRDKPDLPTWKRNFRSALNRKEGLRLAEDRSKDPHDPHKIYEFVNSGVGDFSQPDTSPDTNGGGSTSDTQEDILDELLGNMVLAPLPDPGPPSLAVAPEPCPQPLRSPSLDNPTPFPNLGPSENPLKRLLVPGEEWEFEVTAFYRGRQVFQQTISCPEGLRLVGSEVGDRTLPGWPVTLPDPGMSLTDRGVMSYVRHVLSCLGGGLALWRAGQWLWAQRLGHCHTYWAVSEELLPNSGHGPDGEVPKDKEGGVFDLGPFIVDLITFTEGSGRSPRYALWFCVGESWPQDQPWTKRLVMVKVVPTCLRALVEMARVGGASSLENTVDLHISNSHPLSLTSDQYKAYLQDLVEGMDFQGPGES

MC-38 [3] = test: In vivo antitumor activity against mouse MC-38 cells inoculated in C57BL/6 mouse assessed as complete tumor regression (CR) at 60 mg/kg, po two doses measured for 15 to 20 days relative to total number of mouse; assay type: functional; conditions: time 15-20 day
[4] = Metabolic stability in mouse liver microsomes assessed as half life at 10 uM measured up to 60 mins by LC-MS/MS analysis; assay type: ADME, Microsome
MC-38 [5] = test: In vivo antitumor activity against mouse MC-38 cells inoculated in C57BL/6 mouse assessed as complete tumor regression (CR) at 60 mg/kg, po Q3D co-administered with anti-PD1 measured for 15 to 20 days; assay type: functional; conditions: time 15-20 day
[6] = biological target: T2, Stimulator of interferon genes protein (Homo sapiens, UniProt Q86WV6); test: Agonist activity at human STING HAQ variant in human THP1-Blue ISG cells assessed as fold change in stimulation activity measured after 24 hrs incubation by QUANTI-Blue based microplate reader; assay type: cell-based
T2 sequence (Q86WV6 whole entry, looked up, stated change not applied): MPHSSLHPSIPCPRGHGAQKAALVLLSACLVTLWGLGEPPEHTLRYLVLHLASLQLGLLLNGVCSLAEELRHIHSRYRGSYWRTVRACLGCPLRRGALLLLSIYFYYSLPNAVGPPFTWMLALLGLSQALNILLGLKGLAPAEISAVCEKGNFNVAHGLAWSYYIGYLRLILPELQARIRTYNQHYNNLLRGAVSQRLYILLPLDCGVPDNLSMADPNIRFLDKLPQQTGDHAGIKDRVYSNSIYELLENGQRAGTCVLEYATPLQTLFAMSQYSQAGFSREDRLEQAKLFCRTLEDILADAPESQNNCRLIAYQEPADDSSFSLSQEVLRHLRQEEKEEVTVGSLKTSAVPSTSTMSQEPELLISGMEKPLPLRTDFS

MC-38 [7] = test: In vivo antitumor activity against mouse MC-38 cells inoculated in C57BL/6 mouse assessed as as increase in moue survival time at 60 mg/kg, po Q3D measured for 15 to 20 days; assay type: functional, organism-based; conditions: time 15-20 day
THP1-Blue ISG = test: Induction of STING phosphorylation in human THP1-Blue ISG cells at 13 to 50 uM measured after 3 hrs by Western blot analysis; assay type: cell-based; conditions: filed as agonist, dose 13-50 µM
MC-38 [8] = test: In vivo antitumor activity against mouse MC-38 cells inoculated in C57BL/6 mouse assessed as long-term immunological memory by measuring tumor recurrence at 60 mg/kg, po Q3D measured for 15 to 20 days followed by cured rechallenged with MC-38 cells after 84 days of first dose and measured for additional 74 days (total 157 days observation); assay type: functional, organism-based; conditions: time 157.0 day
THP-1 [9] = test: Induction of interferon response in STING knock out human THP-1 cells assessed as fold change in stimulation activity at 13 to 25 uM measured after 24 hrs incubation by QUANTI-Luc4 based microplate reader; assay type: functional, cell-based; conditions: dose 13-25 µM
[10] = biological target: T2, Stimulator of interferon genes protein; test: Agonist activity at STING R232 mutant (unknown origin) expressed in human THP1-Dual cells assessed as fold change in stimulation activity measured after 24 hrs incubation by QUANTI-Luc4 based microplate reader; assay type: cell-based
[11] = AUC in mouse at 10 mg/kg, po by LC-MS/MS analysis; assay type: ADME, organism-based; conditions: in vivo
MC-38 [12] = test: In vivo antitumor activity against mouse MC-38 cells inoculated in C57BL/6 mouse assessed as increase in IFN-gamma level in serum at 60 mg/kg, po Q3D co-administered with anti-PD1 measured for 15 to 20 days; assay type: functional, organism-based; conditions: time 15-20 day
[13] = Stability of the compound in mouse plasma assessed as half life by LC-MS/MS analysis; assay type: ADME, cell-free
[14] = Oral bioavailability in mouse at 10 mg/kg by LC-MS/MS analysis; assay type: ADME, organism-based; conditions: in vivo
MC-38 [15] = test: In vivo antitumor activity against mouse MC-38 cells inoculated in C57BL/6 mouse assessed as increase in moue survival time at 60 mg/kg, po Q3D co-administered with anti-PD1 measured for 15 to 20 days; assay type: functional, organism-based; conditions: time 15-20 day
[16] = Half life in mouse at 10 mg/kg, po by LC-MS/MS analysis; assay type: ADME, organism-based; conditions: in vivo
[17] = Cmax in mouse at 5 mg/kg, iv by LC-MS/MS analysis; assay type: ADME, organism-based; conditions: in vivo
[18] = Chemical stability of the compound in MeOH/H2O solvent assessed as half life by LC-MS/MS analysis; assay type: physicochemical
MC-38 [19] = test: In vivo antitumor activity against mouse MC-38 cells inoculated in C57BL/6 mouse assessed as increase in IL-6 level in serum at 60 mg/kg, po Q3D co-administered with anti-PD1 measured for 15 to 20 days; assay type: functional, organism-based; conditions: time 15-20 day
THP-1 [20] = test: Induction of interferon secretion in human THP-1 cells assessed as IFN-beta level at 13 uM measured after 24 hrs by ELISA; assay type: functional, cell-based
MC-38 [21] = test: In vivo antitumor activity against mouse MC-38 cells inoculated in C57BL/6 mouse assessed as increase in IFN-gamma level in tumor at 60 mg/kg, po Q3D co-administered with anti-PD1 measured for 15 to 20 days; assay type: functional, organism-based; conditions: time 15-20 day
[22] = Stability of the compound in human plasma assessed as half life by LC-MS/MS analysis; assay type: ADME, cell-free
[23] = Metabolic stability in human liver microsomes assessed as half life at 10 uM measured up to 60 mins by LC-MS/MS analysis; assay type: ADME, Microsome
[24] = Half life in mouse at 5 mg/kg, iv by LC-MS/MS analysis; assay type: ADME, organism-based; conditions: in vivo
MC-38 [25] = test: In vivo antitumor activity against mouse MC-38 cells inoculated in C57BL/6 mouse assessed as complete tumor regression (CR) at 60 mg/kg, po Q3D measured for 15 to 20 days; assay type: functional, organism-based; conditions: time 15-20 day
MC-38 [26] = test: In vivo antitumor activity against mouse MC-38 cells inoculated in C57BL/6 mouse assessed as increase in CXCL10 level in tumor at 60 mg/kg, po Q3D co-administered with anti-PD1 measured for 15 to 20 days; assay type: functional, organism-based; conditions: time 15-20 day
[27] = AUC in mouse at 5 mg/kg, iv by LC-MS/MS analysis; assay type: ADME, organism-based; conditions: in vivo
[28] = biological target: T3, Stimulator of interferon genes protein (Mus musculus, UniProt Q3TBT3); test: Agonist activity at mouse STING expressed in human THP1-Dual cells assessed as fold change in stimulation activity measured after 24 hrs incubation by QUANTI-Luc4 based microplate reader; assay type: cell-based
T3 sequence (Q3TBT3 whole entry): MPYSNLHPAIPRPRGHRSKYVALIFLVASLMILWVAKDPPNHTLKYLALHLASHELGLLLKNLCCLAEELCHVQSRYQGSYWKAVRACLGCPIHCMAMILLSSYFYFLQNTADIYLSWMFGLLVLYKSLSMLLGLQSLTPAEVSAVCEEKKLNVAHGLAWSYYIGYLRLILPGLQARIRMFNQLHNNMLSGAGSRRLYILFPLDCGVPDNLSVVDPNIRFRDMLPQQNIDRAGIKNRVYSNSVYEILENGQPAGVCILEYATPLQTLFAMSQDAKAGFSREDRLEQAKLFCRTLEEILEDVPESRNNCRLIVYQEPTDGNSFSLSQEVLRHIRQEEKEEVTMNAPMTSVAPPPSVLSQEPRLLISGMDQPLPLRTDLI

[29] = Clearance in mouse at 5 mg/kg, iv by LC-MS/MS analysis; assay type: ADME, organism-based; conditions: in vivo
MC-38 [30] = test: In vivo antitumor activity against mouse MC-38 cells inoculated in C57BL/6 mouse assessed as increase in IL-6 level in tumor at 60 mg/kg, po Q3D co-administered with anti-PD1 measured for 15 to 20 days; assay type: functional, organism-based; conditions: time 15-20 day
MC-38 [31] = test: In vivo antitumor activity against mouse MC-38 cells inoculated in C57BL/6 mouse assessed as increase in CXCL10 level in serum at 60 mg/kg, po Q3D co-administered with anti-PD1 measured for 15 to 20 days; assay type: functional, organism-based; conditions: time 15-20 day
[32] = Clearance in mouse at 10 mg/kg, po by LC-MS/MS analysis; assay type: ADME, organism-based; conditions: in vivo

Structure (SMILES): CC[C@H](CNC(=O)c1[se]c2cc(OC)c(OC)cc2c1F)C(=O)O
- Cmax [1]: 20600 ng/mL
- Activity [2]: Active
- Activity (MC-38 [3]): 60%
- half-life at 10 µM [4]: > 60 min
- Activity (MC-38 [5]): Active; Compound Effect Significantly Exceeded Than Its Parent Compound Zsa-52 (Cr = 60%)
- EC50 [6]: 3.3 µM
- Activity (MC-38 [7]): Active
- Activity (THP1-Blue ISG): Active
- Activity (MC-38 [8]): Active
- Activity (THP-1 [9]): inactive
- EC50 [10]: 9 µM
- AUC [11]: 23800 ng·h/mL
- Activity (MC-38 [12]): Active
- half-life [13]: > 60 min
- bioavailability [14]: 58%
- Activity (MC-38 [15]): Active
- half-life [16]: 66 min
- Cmax [17]: 48400 ng/mL
- half-life [18]: 48 min
- Activity (MC-38 [19]): Active
- Activity (THP-1 [20]): Active
- Activity (MC-38 [21]): Active
- half-life [22]: > 60 min
- half-life at 10 µM [23]: > 60 min
- half-life [24]: 36 min
- Activity (MC-38 [25]): Active
- Activity (MC-38 [26]): Active
- AUC [27]: 20600 ng·h/mL
- EC50 [28]: 9.3 µM
- clearance [29]: 4.04 mL/min/kg
- Activity (MC-38 [30]): Active
- Activity (MC-38 [31]): Active
- CL/F [32]: 6.94 mL/min/kg
